Values of other authors, collected in patent US5631296A, “Drugs containing S(+)-ibuprofen” (priority 1992, dated 1997).

How the values were obtained:
[1] = system: serum proteins; conditions: stereoselective
[2] = system: cyclooxygenase subunit of the enzyme prostaglandin synthease
[3] = comparatively low dosage
[4] = system: rhesus monkeys
[5] = system: skin inflammation; conditions: healthy test subjects, relative to racemate
[6] = system: arthritic patients; conditions: daily dose well below the conventional racemate dosage
[7] = system: humans; conditions: U.S. Pat. No. 4,851,444

Row | Structure (SMILES) | toxic effects directly attributable to accumulation of R(-) in fatty tissue (chronic administration of the racemate) | accumulation of the R(-) enantiomer in the fatty tissue (in vivo) | binding to the serum proteins [1] | inhibition of prostaglandin synthesis (mechanism of action found in vitro) [2] | therapeutic action relative to the racemate [3] | analgesic action [4] | dose-effect curve in skin inflammation model [5] | therapeutic effect in arthritic patients [6] | onset and intensity of analgesic effect versus identical amounts of the racemate [7]
1 | CC(C)Cc1ccc(C(C)C(=O)O)cc1 (racemic) [racemate, 2-(4-isobutylphenyl)propionic acid] | no toxic effects have so far been observed | leads to an accumulation of the R(-) enantiomer in the fatty tissue |  |  |  |  |  |  | 
2 | CC(C)Cc1ccc([C@@H](C)C(=O)O)cc1 [R(-)-ibuprofen] |  |  | competing for the binding site |  |  |  |  |  | 
3 | CC(C)Cc1ccc([C@H](C)C(=O)O)cc1 [S(+)-ibuprofen] |  |  | competing for the binding site | found in vitro only for the S(+) enantiomer | the same therapeutic action as the racemate | stronger analgesic action | shifted towards lower dosage relative to that of the racemate | good therapeutic effect | starts more rapidly and is more intense
